Laboratory results as given in EP0776155B1, “DELIVERY OF EXOGENOUS CHEMICAL SUBSTANCES TO PLANT TISSUES” (MONSANTO COMPANY, priority 1994, dated 1996).

Test system: velvetleaf (Abutilon theophrasti, ABUTH)
Assay: Example 50: percent control, KOH chemical corrosive or garnet abrasion then glyphosate spray
Type: in vivo
Details: 11 days after glyphosate application
Description: In this Example illustrative of the invention, velvetleaf (Abutilon theophrasti, ABUTH) seeds were planted in 4-inch (10.1-cm) square pots filled with a soil mix consisting of 50% Metromix 350 plus 50% silt loam soil to which 100 g/cu ft (3.57 kg/m^3) Osmocote fertilizer were added, and the seeds were covered with the same soil mix without added fertilizer. […] The same settings were maintained before and after treatment.
Physical injury in this Example was inflicted on the above-ground portions of the plants, 17 days after planting, by a propelled chemical corrosive, a 2.5% weight/weight aqueous potassium hydroxide (KOH) solution. This solution was applied using a track sprayer calibrated to deliver 20 gallons/acre (187 liters/ha) with an 8002E nozzle having a 50-mesh screen, 16 inches (41 cm) above the plant canopy. Plants were allowed to dry for 1 hour after KOH treatment. Other plants received injury by abrasion using a hand-held Sears Craftsman™ sandblaster as described in Examples 1-9. A third set of plants received no abrasion or corrosion with KOH.
Plants were then assigned to different herbicide treatments in a factorial experimental design with 3 replications. All plants for each herbicide treatment were sprayed at the same time using a track sprayer calibrated to deliver 20 gallons/acre (187 liters/ha) water with an 8002E nozzle having a 50-mesh screen, 16 inches (41 cm) above the plant canopy. In these Examples the herbicide used was glyphosate as its isopropylamine salt, in the form of the aqueous concentrate formulation MON 2139 of Monsanto Company. Spray solutions were made from stock solutions prepared by dilution of MON 2139 in water.
After an interval of 11 days, a visual evaluation was performed to estimate herbicidal efficacy as percent control of treated plants compared to untreated check plants.

O=C(O)CNCP(=O)(O)O [glyphosate, N-phosphonomethylglycine]
percent control of ABUTH (glyphosate rate 0.0140 kg a.e./ha, injury by abrasion): 30% | percent control of ABUTH (glyphosate rate 0.0140 kg a.e./ha, injury by corrosion (KOH)): 7% | percent control of ABUTH (glyphosate rate 0.0140 kg a.e./ha, no physical injury): 0% | percent control of ABUTH (glyphosate rate 0.028 kg a.e./ha, injury by abrasion): 70% | percent control of ABUTH (glyphosate rate 0.028 kg a.e./ha, injury by corrosion (KOH)): 13% | percent control of ABUTH (glyphosate rate 0.028 kg a.e./ha, no physical injury): 0% | percent control of ABUTH (glyphosate rate 0.056 kg a.e./ha, injury by abrasion): 75% | percent control of ABUTH (glyphosate rate 0.056 kg a.e./ha, injury by corrosion (KOH)): 48% | percent control of ABUTH (glyphosate rate 0.056 kg a.e./ha, no physical injury): 3% | percent control of ABUTH (glyphosate rate 0.11 kg a.e./ha, injury by abrasion): 83% | percent control of ABUTH (glyphosate rate 0.11 kg a.e./ha, injury by corrosion (KOH)): 73% | percent control of ABUTH (glyphosate rate 0.11 kg a.e./ha, no physical injury): 0% | percent control of ABUTH (glyphosate rate 0.22 kg a.e./ha, injury by abrasion): 96% | percent control of ABUTH (glyphosate rate 0.22 kg a.e./ha, injury by corrosion (KOH)): 85% | percent control of ABUTH (glyphosate rate 0.22 kg a.e./ha, no physical injury): 81% | percent control of ABUTH (glyphosate rate 0.45 kg a.e./ha, injury by abrasion): 99% | percent control of ABUTH (glyphosate rate 0.45 kg a.e./ha, injury by corrosion (KOH)): 91% | percent control of ABUTH (glyphosate rate 0.45 kg a.e./ha, no physical injury): 87% | percent control of ABUTH (glyphosate rate 0.89 kg a.e./ha, no physical injury): 100%
